Patent US20210139610A1, “COMPOSITIONS AND METHODS FOR MEDIATING EPS” (priority 2018, published 2021)
Entries after “also recorded” stand apart in the source; their conditions may differ.

Legend:
[1] = tested on: Non-typeable Haemophilus influenzae biofilms; assay: NTHI in vitro biofilm formation, additive present from seeding (LIVE/DEAD, CLSM, COMSTAT); assay type: cell-based; conditions: for NTHI biofilm formation (average thickness, biomass): DCHA 50 μM
Procedure: FIG. 14: Non-typeable Haemophilus influenzae biofilms were grown for 40 h in supplemented BHI medium containing additives as indicated below each bar in 8 well chambered coverglass slides at 37° C. and 5% CO2. Biofilms were washed, stained with LIVE/DEAD®, fixed, and imaged by CLSM. Biofilm parameters were quantified using COMSTAT software.
Dicyclohexylamine inhibits spermidine synthase via a competitive inhibition mechanism, i.e. through binding to the same site on the protein as the putrescine substrate. Applicants therefore hypothesized that dicyclohexylamine would inhibit NTHi biofilm development. […]

[2] = tested on: Non-typeable Haemophilus influenzae; assay: NTHI growth (absorbance at 490 nm, colony-forming units); assay type: cell-based; conditions: 16 h, supplemented BHI, up to 10 mM
Procedure: FIG. 13: Non-typeable Haemophilus influenzae were grown for 16 h in supplemented BHI media containing additives as indicated above in 96 well plates at 37° C. and 5% CO2. Growth was quantified by spectrophotometric absorbance at 490 nm (left) and by enumeration of colony-forming units (right).
(§1) Dicyclohexylamine inhibits spermidine synthase via a competitive inhibition mechanism, i.e. through binding to the same site on the protein as the putrescine substrate. Applicants therefore hypothesized that dicyclohexylamine would inhibit NTHi biofilm development.

[3] = tested on: spermidine in the NTHI biofilm matrix; assay: Immunofluorescence for spermidine in NTHI biofilm matrix; assay type: cell-based, Non-typeable Haemophilus influenzae; conditions: grown 40 h in presence of DCHA
Procedure: FIG. 15: Non-typeable Haemophilus influenzae biofilms were grown for 40 h in supplemented BHI media containing additives as indicated above in 8 well chambered coverglass slides at 37° C. and 5% CO2. Biofilms were washed, probed with primary antibodies directed towards spermidine, a fluorescent secondary antibody (dark gray dots), and stained with DAPI (gray regions).
as §1

[4] = tested on: spermidine levels in UPEC biofilms; assay type: cell-based
[5] = tested on: eDNA scaffold structure of NTHI biofilms; assay: eDNA scaffold structure in early (3 h) NTHI biofilms, dsDNA immunofluorescence; assay type: cell-based, Non-typeable Haemophilus influenzae; conditions: DCHA 50 μM
Procedure: FIGS. 3A-3C: Polyamine synthesis inhibitor reduces biofilm formation. (FIG. 3A) COMSTAT quantification of LIVE/DEAD® stained NTHI biofilms grown in the presence of dicyclohexylamine (DCHA, 50 μM), a spermidine (Spd) synthase inhibitor, Spd (1 mM), or both. Bars represent the SEM. Statistical significance compared to control was assessed by unpaired t-tests, *P<0.05. […] (FIG. 3B) Immunofluorescence microscopy images of eDNA scaffold structure in NTHI in vitro biofilms grown for 3 h in the presence of DCHA (50 μM). […] (FIG. 3C) Immunofluorescence CLSM images of NTHI in vitro biofilms grown for 40 h in the presence of DCHA. Probed for Spd (white dots in FIG. 3C lower panel) and counterstained with DAPI (gray regions).
FIG. 16: Surface attached non-typeable Haemophilus influenzae were grown for 3 h in supplemented BHI media containing additives as indicated above in Fluorodish coverglass dishes at 37° C. and 5% CO2. Biofilms were washed, probed with primary antibodies directed towards double stranded DNA and a fluorescent secondary antibody (white).
as §1

[6] = tested on: Z-DNA and B-DNA in the NTHI biofilm extracellular matrix; assay: Immunofluorescence CLSM for Z-DNA / B-DNA in NTHI biofilms; assay type: cell-based, Non-typeable Haemophilus influenzae; conditions: HMGB1 treatment at 24 h, read at 40 h
Procedure: FIG. 31: DNase degrades B-DNA, but not Z-DNA, within the biofilm extracellular matrix. DNase (Pulmozyme; 5 units) was added at 24 h after biofilm seeding to in vitro pre-formed NTHI biofilms.
FIG. 37: HMGB1 destabilizes Z-DNA structures in the biofilm extracellular matrix. Non-typeable Haemophilus influenzae biofilms were grown in supplemented BHI media in 8 well chambered coverglass slides at 37° C. and 5% CO2. After 24 h, biofilms were treated as indicated above. After 40 h, biofilms were washed, probed with primary antibodies directed against Z-DNA (light gray dots), a fluorescent secondary antibody, stained with DAPI (gray regions), and visualized via fluorescence microscopy.
FIGS. 50A-50B: Equilibrium shift of B-DNA to Z-DNA conversion alters biofilm formation. NTHI biofilms formed for 24 h were incubated with cerium chloride (CeCl3) or chloroquine for an additional 16 h and were probed with naive or anti-Z-DNA (white) by immunofluorescence CLSM.
FIGS. 51A-51B: Equilibrium shift of B-DNA to Z-DNA conversion alters biofilm formation. NTHI biofilms formed for 24 h were incubated with cerium chloride (CeCl3) (FIG. 51A) or chloroquine (FIG. 51B) for an additional 16 h. Z-DNA was measured by IF and CLSM using anti-Z-DNA and cells were stained with the membrane stain FM4-64. Bars represent the SEM. Statistical significance compared to control was assessed by paired t-tests, *P<0.05, **P<0.01.

[7] = tested on: poly(dG-dC) substrate; assay: poly(dG-dC) substrate nuclease degradation (gel electrophoresis); assay type: biochemical; conditions: in presence of protective concentrations of spermidine/polyamines
Procedure: FIG. 32: Z-DNA formation protects DNA from nuclease degradation. A poly(dG-dC) substrate was incubated with salt activated nuclease (SAN) or DNase I in increasing concentrations of NaCl, spermine, or spermidine as indicated above. Degradation products were visualized by gel electrophoresis. High salt and polyamines protect DNA from degradation through conversion to the Z-DNA form.
FIGS. 34A-34B: DNABII proteins protect DNA by shifting to Z-DNA form. (FIG. 34A) A poly(dG-dC) substrate was incubated with DNase I in increasing concentrations of NTHi HU as indicated above. Degradation products were visualized by gel electrophoresis. […] (FIG. 34B) Top: Circular dichroism spectrum of a B-DNA substrate being converted to Z-DNA by increasing concentrations of a Z-DNA catalyst (adapted from Rahmouni (1992) Mol Microbiol. 6(5):569-72). Note inversion of negative peak around 250 nm and positive peak around 280 nm. Bottom: Poly(dGdC) DNA (5 μg) was incubated with HU (15 μM) for 2 h and CD spectra collected.
FIG. 41: HMGB1 reverts polyamine-induced Z-DNA to a nuclease sensitive B-DNA state. A poly(dG-dC) substrate was incubated with spermidine and HMGB1. Degradation products were visualized by gel electrophoresis.

[8] = tested on: DNABII proteins; assay: DNABII proteins in NTHI biofilm and culture media (immunofluorescence, Western blot); assay type: cell-based, Non-typeable Haemophilus influenzae; conditions: HMGB1 treatment at 24 h, read at 40 h
Procedure: FIGS. 38A-38C: HMGB1 displaces DNABII proteins thereby disrupting NTHI biofilms. Non-typeable Haemophilus influenzae biofilms were grown in supplemented BHI media in 8 well chambered coverglass slides at 37° C. and 5% CO2. After 24 h, biofilms were treated as indicated. (FIG. 38A) After 40 h, biofilms were washed, probed with primary antibodies directed against DNABII proteins (light gray dots), a fluorescent secondary antibody, stained with DAPI (gray regions), and visualized via fluorescence microscopy. (FIG. 38B) Media from biofilm cultures was collected and analyzed via Western blot with a primary antibody that recognizes DNABII proteins. […] (FIG. 38C) COMSTAT quantification NTHI biofilms stained with LIVE/DEAD® and visualized with confocal microscopy after treatment with 5 mg/mL HMGB1.

[9] = tested on: NTHI biofilms in the middle ear; assay: Chinchilla model of otitis media due to NTHI, middle ear biofilm scoring; assay type: in vivo; conditions: 5 μg to middle ears at 4 and 5 days post infection, scored 24 h later
Procedure: FIGS. 39A-39B: HMGB1 promotes biofilm resolution in an experimental model (chinchilla host) of OM. Diluent or 5 μg rHMGB1 or mHMGB1 were delivered directly to middle ears of chinchillas at 4 and 5 days post infection with NTHI. Animals were sacrificed 24 h later, and their middle ears were imaged (FIG. 39A) and blindly scored (FIG. 39B) based on the criteria described in the bottom of (FIG. 39A). Bars represent SEM. ***P<0.001.

[10] = tested on: B. cenocepacia biofilms; assay: Burkholderia cenocepacia in vitro biofilm disruption (COMSTAT); assay type: cell-based; conditions: 5 mg/mL HMGB1 at 24 h, total 40 h
Procedure: (§2) (FIG. 40A) B. cenocepacia biofilms were grown in LB media in 8 well chambered coverglass slides at 37° C. and 5% CO2. After 24 h, biofilms were treated 5 mg/mL HMGB1. After a total of 40 h, biofilms were stained with LIVE/DEAD®, visualized via CLSM and analyzed by COMSTAT. Bars represent the SEM. (FIG. 40B) C57BL/6 mice were infected with 10^7 CFU i.t., and simultaneously received 5 mg rHMGB1 or mHMGB1, a C45 S non-inflammatory variant. Aggregates of B. cenocepacia were visible by fluorescence microscopy in sections probed with an α-B. cenocepacia antibody (gray). After 18 h, (FIG. 40C) CFUs were quantified in BAL. Bars represent SD. *P<0.05, ***P<0.001.

[11] = tested on: B. cenocepacia; assay: Mouse lung infection with B. cenocepacia (aggregates, CFU in BAL); assay type: in vivo, C57BL/6 mice; conditions: 10^7 CFU i.t. with simultaneous 5 mg rHMGB1 or mHMGB1, 18 h
Procedure: as §2

[12] = tested on: preformed NTHI biofilms; assay: Disruption of pre-formed NTHI biofilms (treatment after initial growth; LIVE/DEAD, CLSM, COMSTAT); assay type: cell-based, Non-typeable Haemophilus influenzae; conditions: 5 mg/mL HMGB1, treated at 24 h
[13] = 50 μM dicyclohexylamine, 40 h, COMSTAT
[14] = listed as Dicyclohexylamine (DCHA)
[15] = listed as dicyclohexylamine (DCHA)
[16] = listed as spermidine synthase inhibitor

Compound: C1CCC(NC2CCCCC2)CC1 [dicyclohexylamine]
- biofilm roughness ([1]; 50 μM dicyclohexylamine, 40 h): increasing biofilm roughness
- reduction of biofilm biomass [1, 13]: approximately 40%
- reduction of biofilm thickness [1, 13]: approximately 40%
- NTHI biofilm formation (average thickness, biomass) [1]: significantly inhibited NTHi biofilm formation
- NTHI biofilm formation (average thickness, biomass) ([1]; listed as DCHA): inhibited biofilm biogenesis in vitro, decreasing average thickness and biomass; also recorded: Average thickness of biofilms was decreased
- NTHI biofilm formation (average thickness, biomass) ([1]; listed as Dicyclohexylamine): inhibited biofilm biogenesis
- NTHI biofilm formation (average thickness, biomass) [1, 14]: significantly decreased average thickness compared to sBHI control
- NTHI biofilm formation (average thickness, biomass) [1, 15]: a significant decrease in biofilm average thickness
- NTHi growth [2]: did not affect NTHi growth up to 10 mM
- NTHi growth ([2]; listed as DCHA): did not affect NTHI growth
- NTHi growth [2, 16]: did not affect normal growth
- spermidine / polyamine presence in NTHI biofilm matrix [3]: statistically significant corresponding decrease in spermidine present in the biofilm matrix
- spermidine / polyamine presence in NTHI biofilm matrix ([3]; listed as DCHA): reduced extracellular polyamine incorporation into the biofilm EPS; also recorded: inhibits polyamine incorporation into the biofilm EPS
- spermidine / polyamine presence in NTHI biofilm matrix [3, 14]: reduces spermidine levels in NTHI and UPEC biofilms
- spermidine / polyamine presence in NTHI biofilm matrix [3, 15]: an overall decrease in spermidine levels as measured by IF
- spermidine / polyamine presence in NTHI biofilm matrix [3, 16]: reduced spermidine presence in the biofilm matrix
- spermidine levels in UPEC biofilms [4]: reduces spermidine levels in NTHI and UPEC biofilms
- eDNA scaffold structure amount and complexity ([5]; listed as DCHA): inhibited production of the eDNA scaffold; also recorded: eDNA scaffold structure production is greatly reduced
- eDNA scaffold structure amount and complexity ([5]; listed as Dicyclohexylamine): reduced the amount and the complexity of eDNA scaffold structures
- eDNA scaffold structure amount and complexity [5, 16]: reduced both the presence and complexity of the extracellular DNA structure

Compound: HMGB1: high mobility group box 1 protein, eukaryotic chromatin protein of 215 amino acids
- Z-DNA content of NTHI biofilm matrix [6]: diminished Z-DNA content; also recorded: reduced Z-DNA structures in the biofilm matrix
- nuclease sensitivity of poly(dG-dC) substrate [7]: restored nuclease sensitivity to spermidine-induced Z-DNA substrates
- DNABII proteins in / released from the biofilm matrix [8]: DNABII proteins were released from the biofilm; also recorded: displaced DNABII proteins from the biofilm matrix
- resolution of middle ear NTHI biofilms [9]: efficient resolution of adherent biofilms; also recorded: promoted clearance of pre-existing NTHI biofilms in situ
- B. cenocepacia biofilm disruption in vitro [10]: effective at disrupting biofilms formed in vitro by Burkholderia cenocepacia; also recorded: disrupts Burkholderia cenocepacia biofilms
- B. cenocepacia aggregate biofilm in lungs [11]: prevented B. cenocepacia aggregate biofilm formation in the lungs of mice; also recorded: significantly disrupts B. cenocepacia biofilms in situ
- NTHI biofilm disruption [12]: significant biofilm disruption; also recorded: disrupts biofilms by displacing DNABII proteins
